Test results reported in patent publication US20240245703A1, “TOPICAL APPLICATION OF AGENTS TO REDUCE SUN SENSITIVITY AND IMPROVE TOPICAL PHOTODYNAMIC THERAPY” (Wright State University, priority 2021, published 2024).

Key:
[1] = tested on: PDT-induced immunosuppression; experiment: contact hypersensitivity (CHS) to DNFB after PDT, ear thickness; format: in vivo, mice; conditions: wild-type mice
From the text: Five days later the mice underwent sensitization with the neoantigen DNFB. To test for local immunosuppression, DNFB was applied to the PDT-treated area. To test for systemic immunosuppression, the DNFB was applied to back skin at least 2 cm away from the PDT-treated area. Nine days later the mice underwent elicitation reactions to DNFB by application to one ear, with vehicle applied to the other ear. One day later the ear thickness was obtained as a measure of CHS reaction and compared to pre-treatment and vehicle-treated values. Some mice were treated with intraperitoneal CPAF as a positive control for systemic immunosuppression.
For the data shown in FIG. 20, wild-type mice either were injected intraperitoneally with 250 ng CPAF as a positive control for immunosuppression, underwent PDT using 10 J/cm^2 blue light, or received no treatment (SHAM). […] Five days later the mice underwent sensitization with DNFB in PDT-treated (local immunosuppression) or non-PDT-treated skin (systemic immunosuppression). Nine days later the mice underwent elicitation reactions to ears with ear thickness measured at 24 hours. For the data shown in FIG. 21, wild type and aSMase-deficient (Smpd1−/−) mice underwent treatment with CPAF or PDT followed by DNFB sensitization/elicitation reactions as in FIG. 20. The data are mean±SD values. * Denotes statistically significant (P<0.05) changes from sham treatment values using two-way ANOVA.

PDT-induced MVP release = PDT-induced MVP release in skin and plasma of mice; format: in vivo; conditions: wild-type mice, PDT 20 J/cm^2 blue light, 100 μl of 5 mM topical immediately after, 4 h
Description: Next, the role of PAF and aSMase in PDT-induced MVP release was assessed. […] Next, the ability of topical PDT to generate MVP in vivo in mice, and the role of aSMase in this process, was determined. […] Two approaches were used to determine if PDT-induced MVP involved aSMase.
The role of aSMase in PDT-mediated MVP release was evaluated in a murine system. For the data shown in FIG. 18, wild-type mice were treated with either sham, 100 μl of 5 mM IMIP, or 90% polyethylene glycol: 10% DMSO vehicle, or 1 μM TPA (as a positive control for MVP release), or PDT using 20 J/cm^2 blue light. Immediately following PDT, the treated areas were given vehicle or imipramine. At 4 hours post-treatment, the mice were euthanized and MVP were measured from duplicate 6-mm punch biopsies and plasma. The data are mean±SD fold increase in MVP normalized to tissue weight/plasma volume. * Denotes statistically significant (P<0.05) changes from sham; #statistically significant (P<0.05) changes from comparator denoted by line by two-way ANOVA; NS not statistically significant.
To confirm the role of aSMase in PDT-induced MVP generation, PDT effects were evaluated in the absence of aSMase was evaluated in a murine system. For the data shown in FIG. 19, wild-type or aSMase-deficient (Smpd1−/−) mice underwent sham or PDT using 20 J/cm^2 blue light. At 4 hours post-treatment, the mice were euthanized and MVP were measured from duplicate 6-mm punch biopsies and plasma. The data are mean±SD fold increase in MVP normalized to tissue weight/plasma volume. * Denotes statistically significant (P<0.05) changes from sham; NS not statistically significant.

[2] = hairless mice, effect of propylene glycol; cited from earlier work
UVB-induced MVP release [3] = experiment: MVP release after localized UVB irradiation of volar forearm of human subjects; format: in vivo; conditions: human photosensitive vs normal subjects, 1 KJ/m^2 UVB, 4% imipramine immediately after, biopsies 4 h
From the text: FIG. 22A compares normal subjects to subjects who have active photosensitivity disorders as denoted by positive screening. […] The individual data points are shown in FIG. 22A with the mean±SE of the groups for the UVB+vehicle for the normal and photosensitive subjects.

human skin explants = experiment: UVB-induced MVP formation in human skin explants ex vivo; format: cell-based; conditions: 4 h
From the text: Four hours post-UVB triplicate skin biopsies were obtained and MVP quantified.

UVB-induced erythema = experiment: erythema and temperature response to low-fluence UVB on temple skin of subjects with rosacea; format: in vivo, human
Description: 30 minutes later, a 1 cm area of previously treated skin was irradiated with a low 300 J/m^2 UVB. Erythema was measured before UVB and at various times post-UVB irradiation in blinded fashion with a mexameter and temperature using a thermal imaging camera. […] Values represent the change in erythema from baseline for each subject at 24 hours post-UVB. […] The boxes represent the area treated with UVB. Insets into the photographs are thermal camera images of the UVB-treated skin, with white areas on the thermal imaging camera denoting increased temperature.

UVB-induced MVP release [4] = experiment: MVP release in skin and plasma of wild-type and XPA KO mice after UVB or topical agonists; format: in vivo; conditions: WT and XPA KO mice, 5 kJ/m^2 UVB, 500 μM imipramine topical immediately post-UVB, 4 h
From the text: The enzyme aSMase is also known to generate MVP in response to many stressors such as UVB via activation of PAFR. Yet other stimuli such as in response to a phorbol ester (TPA) are independent of the PAFR. Therefore, administration of inhibitors of aSMase may block UVB-MVP release in XPA deficient model, as well as in other situations where MVP release is independent of the PAFR.
Groups of 8-13 wild-type (C57BL/6) and XPA KO mice received no treatment (NT) or 1 KJ/m^2, 2.5 kJ/m^2, or 5 KJ/m^2 of UVB to their dorsal back skin. In some experiments, mice were treated with topical application of the PAFR agonist carbamoyl-PAF (CPAF; 50 μL of 100 μM) or the phorbol ester 12-O-tetradecanoylphorbol-13-acetate (TPA; 50 μL of 100 μM) in 90% ethanol: 10% DMSO vehicle. For the data in FIG. 2, triplicate skin biopsies were obtained and weighed four hours post-treatment, and MVP was measured. […] For the data in FIG. 3, plasma was obtained and MVP was measured four hours post-treatment. […] Data are the mean±S.E. fold change of MVP count. Groups were compared using One-Way ANOVA and Tukey's post-hoc test. Differences in samples were considered significant if the P value was less than 0.05. […]
For the data shown in FIG. 4, triplicate skin biopsies were obtained and MVP was measured. For the data shown in FIG. 5, plasma was obtained and MVP was measured. […]

## CN(C)CCCN1c2ccccc2CCc2ccccc21 [Imipramine]
[1]; 250 ng CPAF intraperitoneal, topical imipramine
  CPAF-induced systemic immunosuppression (CHS to DNFB): did not affect the immunosuppressive effects of CPAF
[1]; PDT 10 J/cm^2, 100 μL of 5% imipramine topical post-PDT, DNFB on PDT-treated skin
  PDT-induced local immunosuppression (CHS to DNFB): inhibited both local and systemic immunosuppression
[1]; PDT 10 J/cm^2, 100 μL of 5% imipramine topical post-PDT, DNFB on non-PDT-treated skin
  PDT-induced systemic immunosuppression (CHS to DNFB): inhibited both local and systemic immunosuppression
PDT-induced MVP release
  PDT-induced MVP release in skin and plasma: blocked MVP release
[2]
  absorption with propylene glycol: enhances absorption
UVB-induced MVP release [3]
  UVB-induced MVP release in forearm skin: blocks the increased MVP release selectively in the photosensitive subjects
Human skin explants; 100 μL 500 μM applied 30 minutes before 2,500 J/m^2 UVB
  UVB-induced MVP formation, pre-treatment: blocks UVB-induced MVP formation
Human skin explants; 100 μL 500 μM applied immediately after 2,500 J/m^2 UVB
  UVB-induced MVP formation, post-treatment: blocks UVB-induced MVP formation
UVB-induced erythema; one representative rosacea subject, 4% imipramine + UVB versus vehicle + UVB
  skin temperature (thermal imaging) after UVB: less temperature signature
UVB-induced erythema; subjects with rosacea, 0.1 ml 4% imipramine 30 minutes before 300 J/m^2 UVB, 24 hours post-UVB
  erythema response to UVB: blocks the erythema response
UVB-induced MVP release [4]
  UVB-induced MVP in plasma: blocked MVP accumulation
  UVB-induced MVP in skin: blocked MVP accumulation in skin
